Experimental data taken from PubChem BioAssay (NCI).
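Growth conditions: 96-well plates. Treatment: test compound, 48 hours, 5 concentrations. Analysis: linear interpolation between bracketing concentrations; unreached endpoints set to highest concentration. Definition used: TGI = concentration required for complete inhibition of growth.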

Columns and labels:
Assay in all cases: NCI anticancer screen, dose series, 48 h
[1] = tested on: BT-549 breast
[2] = tested on: IGROV1 ovarian
[3] = tested on: ACHN renal
[4] = tested on: A549 NSCLC
[5] = tested on: SF-539 CNS
[6] = tested on: OVCAR-3 ovarian
[7] = tested on: NCI-H226 lung
[8] = tested on: DU-145 prostate
[9] = tested on: MCF7 breast
[10] = tested on: NCI-H460 lung

SMILES	TGI [1]	TGI [2]	TGI [3]	TGI [4]	TGI [5]	TGI [6]	TGI [7]	TGI [8]	TGI [9]	TGI [10]
COc1cc(C=O)cc(C=Nc2ccc(Br)cc2)c1O	> 100 µM	> 100 µM	49.4 µM	> 100 µM	7 µM	> 100 µM	8.19 µM	> 100 µM	> 100 µM	37.5 µM
O=c1c2ccc(Cl)cc2oc2c(CSc3ccccc3)cccc12	> 78.7 µM	> 52 µM	> 65.1 µM	> 100 µM	> 60.7 µM	> 100 µM	> 100 µM	> 100 µM	> 100 µM	90.4 µM
COc1cc2c(cc1O)NC(=O)[C@@H]1C[C@@H](O)CN1C2=O	> 100 µM	> 100 µM	> 100 µM	> 100 µM	> 100 µM	> 100 µM	> 100 µM	> 100 µM	> 100 µM	> 100 µM
BrC1(c2ccccc2)C[n+]2c(-c3ccccc3)cc(-c3ccccc3)cc2-c2ccccc21 (stereo not given)	1.85 µM	5.14 µM	14 µM	9.77 µM	11.4 µM	0.466 µM	12.2 µM	13.2 µM	0.735 µM	6.99 µM
CC1(C)C(=O)/C(=C/c2ccccc2)C(C)(C)C1(C)C	> 100 µM	> 100 µM	> 100 µM	> 100 µM	> 100 µM	> 83.2 µM	> 100 µM	> 100 µM	> 100 µM	> 100 µM
C/C(=N/NC(=S)Nc1ccc(C)cc1)c1ccccn1	18.7 µM	13.6 µM	11.9 µM	14 µM	7.41 µM	12.2 µM	2.6 µM	10.4 µM	16.6 µM	7.95 µM
COc1ccc(C2C(=O)c3ccc(OC)cc3OC2c2cccnc2)cc1 (stereo not given)	> 100 µM	> 100 µM	> 100 µM	> 100 µM	> 100 µM	> 100 µM	> 100 µM	> 100 µM	> 100 µM	> 100 µM
CC1=NC(=N)N=C(C)C1N=Nc1ccc2nc(C)[nH]c2c1 (stereo not given)	> 100 µM	> 100 µM	> 100 µM	> 100 µM	> 100 µM	> 100 µM	> 100 µM	> 100 µM	> 100 µM	> 100 µM
O=C(OCCN=c1c2ccccc2ccc2ccccc12)c1cc([N+](=O)[O-])cc([N+](=O)[O-])c1	> 100 µM	> 100 µM	> 100 µM	> 100 µM	> 100 µM	> 100 µM	> 100 µM	> 100 µM	> 100 µM	> 100 µM
COc1ccc(O[C@H](CO)C[C@@H]2COC(C)(C)O2)cc1	> 100 µM	> 100 µM	> 100 µM	> 100 µM	> 100 µM	> 100 µM	> 100 µM	> 100 µM	> 100 µM	> 100 µM
CC[C@]1(c2ccc3c(c2)OCO3)C=[N+]([O-])O[C@H](OC2CCCC2(c2ccccc2)c2ccccc2)[C@@H]1OC(C)=O (stereo not given in full)	8.43 µM	> 21.5 µM	9.75 µM	11.4 µM	> 100 µM	3.42 µM	22.7 µM	7.44 µM	> 24.1 µM	4.91 µM
CCc1c(O)nc(Nc2nc3ccccc3[nH]2)[nH]c1=O	> 100 µM	> 100 µM	> 100 µM	> 100 µM	> 100 µM	> 100 µM	> 100 µM	> 100 µM	> 100 µM	> 100 µM
CC(=O)C1(C(=O)C(=[N+]=[N-])S(=O)(=O)c2ccccc2)CC1	> 100 µM	> 100 µM	> 100 µM	> 100 µM	> 100 µM	> 100 µM	> 100 µM	> 100 µM	> 100 µM	> 100 µM
O=C(Nc1cccc2ccccc12)c1cc2ccccc2oc1=O	> 100 µM	> 100 µM	> 100 µM	> 100 µM	81.8 µM	> 100 µM	54.4 µM	> 100 µM	> 100 µM	> 100 µM
O=S(Nc1ccccc1)c1ccc(Cl)cc1 (stereo not given)	> 100 µM	> 100 µM	> 100 µM	> 100 µM	46.7 µM	> 100 µM	> 100 µM	> 100 µM	> 100 µM	> 100 µM
COc1ccc(S(=O)(=O)NC(CCC(=O)NC(N)=O)C(=O)NC(N)=O)cc1 (stereo not given)	> 100 µM	> 100 µM	> 100 µM	> 100 µM	> 100 µM	> 100 µM	> 100 µM	> 100 µM	> 100 µM	> 100 µM
CC1(C)CCC[C@@]2(C)C1CC[C@@]1(CO)O[C@H](C3=CC(=O)OC3O)C[C@H]12 (stereo not given in full)	20.7 µM	42.5 µM	> 53.5 µM	> 86.1 µM	> 59.8 µM	29.4 µM	35.4 µM	17.8 µM	26.7 µM	38.8 µM

SMILES	TGI [1]	TGI [2]	TGI [3]	TGI [4]	TGI [5]	TGI [6]	TGI [7]	TGI [8]	TGI [9]	TGI [10]
NC(=O)CSc1nc2ccccc2c(=O)n1N	> 100 µM	> 100 µM	> 100 µM	> 100 µM	> 100 µM	> 100 µM	> 100 µM	> 100 µM	> 100 µM	> 100 µM
CCNC(=S)N/N=C(/C)c1cccc(/C(C)=N\NC(=S)NCC)n1	> 100 µM	> 64 µM	> 66.9 µM	> 82.9 µM	23.7 µM	> 94 µM	7.39 µM	> 36.6 µM	31.2 µM	12.5 µM
Cc1n[nH]c(=O)n1-n1cccc1	> 100 µM	> 100 µM	> 100 µM	> 100 µM	> 100 µM	> 100 µM	> 100 µM	> 100 µM	> 100 µM	> 100 µM
Clc1[nH]nc2ccccc12	> 100 µM	> 100 µM	> 100 µM	> 100 µM	> 100 µM	> 100 µM	> 100 µM	> 100 µM	> 100 µM	> 100 µM
Cc1nnc(SCc2nc(C#N)c(C#N)nc2CSc2nnc(C)s2)s1	36.3 µM	33.5 µM	22.5 µM	> 100 µM	40.9 µM	20.7 µM	54.1 µM	29.2 µM	34.3 µM	> 59.2 µM
COc1ccc2oc(=O)c(-c3cc4c(c(C)n3)c(=O)oc3ccc(OC)cc34)cc2c1	> 100 µM	> 100 µM	86 µM	> 100 µM	> 100 µM	> 100 µM	> 100 µM	> 100 µM	> 100 µM	> 100 µM
COc1cc2c(cc1O)C(Cc1ccc(OCc3ccccc3)c(OCc3ccccc3)c1)N(C(=O)NCCc1ccccc1)CC2 (stereo not given)	> 100 µM	> 100 µM	> 100 µM	> 100 µM	> 100 µM	> 100 µM	> 100 µM	> 100 µM	> 100 µM	> 100 µM
Cn1c(CO)ccc1-c1ccc(-c2ccc(CO)[se]2)[se]1	> 91.4 µM	12.4 µM	> 75.3 µM	> 100 µM	> 100 µM	26.7 µM	2.56 µM	> 100 µM	> 40 µM	> 100 µM
O=C1Nc2noc(=O)nc2NO1	> 200 µM	> 200 µM	> 200 µM	> 200 µM	> 200 µM	> 200 µM	> 200 µM	> 200 µM	> 200 µM	> 200 µM
CCCCCCCCCCCCCCCCNc1nc(=O)n(C2OC(C)C(O)C2O)cc1F (stereo not given)	35.1 µM	37.6 µM	29 µM	48 µM	33.5 µM	34.8 µM	40.6 µM	36 µM	33 µM	33.9 µM
Cc1cc(NC(=O)NC(=O)c2ccccc2NC(=O)CN(C)C)ccc1Oc1ncc(Br)cn1	> 100 µM	> 100 µM	> 100 µM	> 100 µM	10.6 µM	13.1 µM	> 92.7 µM	> 100 µM	> 100 µM	> 95 µM
Cn1c2c(c3c(=O)[nH]ncc31)Cc1ccccc1-2	60.5 µM	33.7 µM	34.7 µM	> 100 µM	78.7 µM	41.2 µM	61.9 µM	50.7 µM	56.5 µM	15.1 µM
CC(C)OC(=O)C(NC(=O)C(CC(=O)OCc1ccccc1)NC(=O)OCc1ccccc1)NC(=O)C1C(C)(C)CCC1(C)C (stereo not given)	34.3 µM	64.2 µM	14.7 µM	5.07 µM	13.1 µM	8.01 µM	22.8 µM	> 52.4 µM	28.4 µM	31.6 µM
CC(=O)Oc1cc2c(cc1OCC(F)(F)F)[C@H]1CC[C@]3(C)[C@@H](OC(C)=O)CC[C@H]3[C@@H]1CC2=O	> 77.7 µM	> 66.8 µM	60 µM	77.7 µM	46.1 µM	45.6 µM	> 100 µM	51.6 µM	> 75.6 µM	> 100 µM
COc1cccc2c(=O)oc(-c3ccccc3C)nc12	48.2 µM	96.8 µM	> 100 µM	> 100 µM	69.4 µM	> 100 µM	57.8 µM	> 100 µM	> 100 µM	> 100 µM
C[C@H]1CCC/C=C/[C@@H]2C[C@H](OC3OC(CO)C(O)C(O)C3O)C[C@H]2[C@H](O)/C=C/C(=O)O1 (stereo not given in full)	> 100 µM	> 100 µM	> 100 µM	> 100 µM	> 100 µM	> 100 µM	> 100 µM	> 100 µM	> 100 µM	> 100 µM
